This is an account of results in paper PMC10412597, “Small molecule branched-chain ketoacid dehydrogenase kinase (BDK) inhibitors with opposing effects on BDK protein levels” (Nature Communications, 2023).

Where two headings read alike, the source gives them in different places.

Assay [1] has as its target MAP3K11 (Homo sapiens, UniProt Q16584). More on the design: Invitrogen Lantha screen kinase binding, per cent inhibition of binding. Particulars: 10 µM, binder. The protocol:
(§1) To discover a potent and selective BDK inhibitor, a subset of the Pfizer compound collection was screened. […] Off target activity was assessed in both CEREP and kinase panels (Supplementary Tables 2, 3).

Assay [2] concerns the target MAPK15 (Homo sapiens, UniProt Q8TD08). Further details: Invitrogen Lantha screen kinase binding, per cent inhibition of binding. Conditions: 10 µM, binder. As for the experimental part:
as §1

Assay [3] has as its target CAMKK2 (Homo sapiens, UniProt Q96RR4). More on the design: Invitrogen Lantha screen kinase binding, per cent inhibition of binding. Conditions: 10 µM, binder. As for the experimental part:
as §1

The target of assay [4] is T1, Dual-specificity tyrosine-(Y)-phosphorylation regulated kinase 2 (DYRK) (Homo sapiens, UniProt Q92630).
T1 construct: gene DYRK2
Further details: Invitrogen Lantha screen kinase binding, per cent inhibition of binding. Conditions: 10 µM, binder. As for the experimental part: as §1

Assay [5] addresses T2, Protein kinase, AMP-activated, alpha 1 beta 1 gamma 2 complex (Homo sapiens, UniProt Q13131+Q9UGJ0+Q9Y478).
T2 construct: gene PRKAA1
Further details: Invitrogen Lantha screen kinase binding, per cent inhibition of binding. Conditions: 10 µM, binder. As for the experimental part:
as §1

The target in assay [6] is TGFBR2 (Homo sapiens, UniProt P37173). Further details: Invitrogen Lantha screen kinase binding, per cent inhibition of binding. Conditions: 10 µM, binder. As for the experimental part: as §1
Assay [7] has as its target MYLK (Homo sapiens, UniProt Q15746). More on the design: Invitrogen Lantha screen kinase binding, per cent inhibition of binding. Particulars: 10 µM, binder. The protocol:
as §1

Assay [8] has as its target TTK (Homo sapiens, UniProt P33981). More on the design: Invitrogen Lantha screen kinase binding, per cent inhibition of binding. Particulars: 10 µM, binder. The protocol:
as §1

The target in assay [9] is PKN2 (Homo sapiens, UniProt Q16513). More on the design: Invitrogen Lantha screen kinase binding, per cent inhibition of binding. Conditions: 10 µM, binder. The protocol:
as §1

Assay [10] deals with T3, PPAR-gamma (Homo sapiens, UniProt P37231).
T3 construct: gene PPARG
T3 sequence (P37231 1-505): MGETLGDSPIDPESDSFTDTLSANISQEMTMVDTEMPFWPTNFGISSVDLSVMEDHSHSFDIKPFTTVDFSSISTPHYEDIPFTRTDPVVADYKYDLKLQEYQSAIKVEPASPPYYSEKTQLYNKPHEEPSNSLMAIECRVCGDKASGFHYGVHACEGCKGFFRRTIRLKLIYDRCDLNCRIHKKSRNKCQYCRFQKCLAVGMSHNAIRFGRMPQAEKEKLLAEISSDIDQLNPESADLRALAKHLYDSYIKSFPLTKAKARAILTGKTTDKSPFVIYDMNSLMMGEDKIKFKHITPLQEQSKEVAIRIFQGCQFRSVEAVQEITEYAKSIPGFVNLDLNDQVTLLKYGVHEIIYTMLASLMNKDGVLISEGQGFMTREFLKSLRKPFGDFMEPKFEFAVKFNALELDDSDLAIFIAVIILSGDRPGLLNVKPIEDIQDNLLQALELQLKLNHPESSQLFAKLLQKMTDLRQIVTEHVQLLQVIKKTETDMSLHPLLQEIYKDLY
Put plainly: biochemical. More on the design: Cerep Bioprint off-target panel, ligand binding inhibition. The protocol: as §1

The target in assay [11] is T4, Cyclooxygenase 2 (Homo sapiens, UniProt P35354).
T4 construct: gene PTGS2
More on the design: Cerep Bioprint off-target panel, enzyme or kinase inhibition. Conditions: inhibitor. The protocol:
as §1

In assay [12] the target is T5, Abl Kinase (Homo sapiens, UniProt P00519).
T5 construct: gene ABL1
Further details: Cerep Bioprint off-target panel, enzyme or kinase inhibition. Conditions: inhibitor. As for the experimental part:
as §1

In assay [13] the target is LCK (Homo sapiens, UniProt P06239). More on the design: Cerep Bioprint off-target panel, enzyme or kinase inhibition. Particulars: inhibitor. As for the experimental part: as §1
Assay [14] deals with T6, EGFR Kinase (Homo sapiens, UniProt P00533).
T6 construct: kinase
Further details: Cerep Bioprint off-target panel, enzyme or kinase inhibition. Conditions: inhibitor. As for the experimental part: as §1

Assay [15] deals with T7, P38alpha MAP Kinase (Homo sapiens, UniProt Q16539).
T7 construct: gene MAPK14
More on the design: Cerep Bioprint off-target panel, enzyme or kinase inhibition. Conditions: inhibitor. As for the experimental part:
as §1

In assay [16] the target is T8, Phosphodiesterase 3B (Homo sapiens, UniProt Q13370).
T8 construct: gene PDE3B
Further details: Cerep Bioprint off-target panel, enzyme or kinase inhibition. Conditions: inhibitor. The protocol:
as §1

The target in assay [17] is T9, Angiotensin Coverting Enzyme (Homo sapiens, UniProt P12821).
T9 construct: gene ACE
Further details: Cerep Bioprint off-target panel, enzyme or kinase inhibition. Conditions: inhibitor. As for the experimental part: as §1

In assay [18] the target is SRC (Homo sapiens, UniProt P12931). More on the design: Cerep Bioprint off-target panel, enzyme or kinase inhibition. Conditions: inhibitor. The protocol: as §1
Assay [19] deals with T10, Phosphodiesterase 4D2 (Homo sapiens, UniProt Q08499).
T10 construct: gene PDE4D; isoform 4D2
More on the design: Cerep Bioprint off-target panel, enzyme or kinase inhibition. Conditions: inhibitor. The protocol: as §1

Assay [20] addresses T11, Aurora A Kinase (Homo sapiens, UniProt O14965).
T11 construct: gene AURKA
Further details: Cerep Bioprint off-target panel, enzyme or kinase inhibition. Conditions: inhibitor. The protocol:
as §1

In assay [21] the target is Kdr Kinase (VEGFR2) (Homo sapiens, UniProt P35968). More on the design: Cerep Bioprint off-target panel, enzyme or kinase inhibition. Conditions: inhibitor. As for the experimental part: as §1
The target of assay [22] is T12, Acetylcholinesterase (Homo sapiens, UniProt P22303).
T12 construct: gene ACHE
Further details: Cerep Bioprint off-target panel, enzyme or kinase inhibition. Particulars: inhibitor. The protocol: as §1

Assay [23] addresses T13, Monoamine Oxidase A (Homo sapiens, UniProt P21397).
T13 construct: gene MAOA
Further details: Cerep Bioprint off-target panel, enzyme or kinase inhibition. Conditions: inhibitor. The protocol: as §1

Sequence of TGFBR2 (P37173 whole entry): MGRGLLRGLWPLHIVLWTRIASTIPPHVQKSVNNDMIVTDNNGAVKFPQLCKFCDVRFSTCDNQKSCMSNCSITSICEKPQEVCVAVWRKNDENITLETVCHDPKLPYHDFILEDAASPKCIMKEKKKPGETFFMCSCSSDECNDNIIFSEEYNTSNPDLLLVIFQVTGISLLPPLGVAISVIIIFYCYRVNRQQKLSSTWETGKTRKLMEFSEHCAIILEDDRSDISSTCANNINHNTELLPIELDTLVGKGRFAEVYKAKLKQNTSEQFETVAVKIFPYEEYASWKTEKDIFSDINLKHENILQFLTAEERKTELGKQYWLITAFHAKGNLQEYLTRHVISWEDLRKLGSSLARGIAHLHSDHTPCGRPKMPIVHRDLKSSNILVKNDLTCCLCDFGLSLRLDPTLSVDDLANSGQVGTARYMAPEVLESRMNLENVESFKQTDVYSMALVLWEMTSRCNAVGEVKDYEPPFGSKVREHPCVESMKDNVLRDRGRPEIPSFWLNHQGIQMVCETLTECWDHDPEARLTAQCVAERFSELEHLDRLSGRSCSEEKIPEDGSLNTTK
T5 sequence (P00519 whole entry): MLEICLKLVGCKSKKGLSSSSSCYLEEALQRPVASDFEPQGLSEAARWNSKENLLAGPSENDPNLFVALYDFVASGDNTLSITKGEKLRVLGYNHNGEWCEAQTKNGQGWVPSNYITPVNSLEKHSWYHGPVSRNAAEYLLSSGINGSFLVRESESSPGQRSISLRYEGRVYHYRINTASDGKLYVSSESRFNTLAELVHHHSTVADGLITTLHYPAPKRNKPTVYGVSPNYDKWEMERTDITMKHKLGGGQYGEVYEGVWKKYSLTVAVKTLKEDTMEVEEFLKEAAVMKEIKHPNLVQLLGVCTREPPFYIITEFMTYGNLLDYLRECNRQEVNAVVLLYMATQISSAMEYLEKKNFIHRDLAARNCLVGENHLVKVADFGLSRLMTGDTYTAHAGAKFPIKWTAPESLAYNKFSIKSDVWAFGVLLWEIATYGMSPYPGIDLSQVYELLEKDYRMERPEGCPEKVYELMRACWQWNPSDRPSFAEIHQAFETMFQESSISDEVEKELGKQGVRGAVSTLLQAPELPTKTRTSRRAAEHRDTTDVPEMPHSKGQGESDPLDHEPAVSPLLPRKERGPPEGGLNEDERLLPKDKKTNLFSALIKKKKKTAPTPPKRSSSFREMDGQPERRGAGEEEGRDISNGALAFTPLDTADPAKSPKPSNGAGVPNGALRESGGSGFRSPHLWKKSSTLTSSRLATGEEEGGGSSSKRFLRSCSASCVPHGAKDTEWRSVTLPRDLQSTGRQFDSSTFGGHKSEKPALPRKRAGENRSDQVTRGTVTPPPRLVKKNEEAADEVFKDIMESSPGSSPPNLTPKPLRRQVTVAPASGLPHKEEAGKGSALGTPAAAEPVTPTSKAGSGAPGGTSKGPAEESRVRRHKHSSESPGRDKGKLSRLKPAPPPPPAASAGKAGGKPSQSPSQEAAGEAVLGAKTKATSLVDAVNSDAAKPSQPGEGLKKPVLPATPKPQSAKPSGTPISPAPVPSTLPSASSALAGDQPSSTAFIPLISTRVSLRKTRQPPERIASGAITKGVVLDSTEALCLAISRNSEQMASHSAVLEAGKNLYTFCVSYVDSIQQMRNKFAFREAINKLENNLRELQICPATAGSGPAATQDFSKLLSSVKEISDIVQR
Sequence of MYLK (Q15746 whole entry): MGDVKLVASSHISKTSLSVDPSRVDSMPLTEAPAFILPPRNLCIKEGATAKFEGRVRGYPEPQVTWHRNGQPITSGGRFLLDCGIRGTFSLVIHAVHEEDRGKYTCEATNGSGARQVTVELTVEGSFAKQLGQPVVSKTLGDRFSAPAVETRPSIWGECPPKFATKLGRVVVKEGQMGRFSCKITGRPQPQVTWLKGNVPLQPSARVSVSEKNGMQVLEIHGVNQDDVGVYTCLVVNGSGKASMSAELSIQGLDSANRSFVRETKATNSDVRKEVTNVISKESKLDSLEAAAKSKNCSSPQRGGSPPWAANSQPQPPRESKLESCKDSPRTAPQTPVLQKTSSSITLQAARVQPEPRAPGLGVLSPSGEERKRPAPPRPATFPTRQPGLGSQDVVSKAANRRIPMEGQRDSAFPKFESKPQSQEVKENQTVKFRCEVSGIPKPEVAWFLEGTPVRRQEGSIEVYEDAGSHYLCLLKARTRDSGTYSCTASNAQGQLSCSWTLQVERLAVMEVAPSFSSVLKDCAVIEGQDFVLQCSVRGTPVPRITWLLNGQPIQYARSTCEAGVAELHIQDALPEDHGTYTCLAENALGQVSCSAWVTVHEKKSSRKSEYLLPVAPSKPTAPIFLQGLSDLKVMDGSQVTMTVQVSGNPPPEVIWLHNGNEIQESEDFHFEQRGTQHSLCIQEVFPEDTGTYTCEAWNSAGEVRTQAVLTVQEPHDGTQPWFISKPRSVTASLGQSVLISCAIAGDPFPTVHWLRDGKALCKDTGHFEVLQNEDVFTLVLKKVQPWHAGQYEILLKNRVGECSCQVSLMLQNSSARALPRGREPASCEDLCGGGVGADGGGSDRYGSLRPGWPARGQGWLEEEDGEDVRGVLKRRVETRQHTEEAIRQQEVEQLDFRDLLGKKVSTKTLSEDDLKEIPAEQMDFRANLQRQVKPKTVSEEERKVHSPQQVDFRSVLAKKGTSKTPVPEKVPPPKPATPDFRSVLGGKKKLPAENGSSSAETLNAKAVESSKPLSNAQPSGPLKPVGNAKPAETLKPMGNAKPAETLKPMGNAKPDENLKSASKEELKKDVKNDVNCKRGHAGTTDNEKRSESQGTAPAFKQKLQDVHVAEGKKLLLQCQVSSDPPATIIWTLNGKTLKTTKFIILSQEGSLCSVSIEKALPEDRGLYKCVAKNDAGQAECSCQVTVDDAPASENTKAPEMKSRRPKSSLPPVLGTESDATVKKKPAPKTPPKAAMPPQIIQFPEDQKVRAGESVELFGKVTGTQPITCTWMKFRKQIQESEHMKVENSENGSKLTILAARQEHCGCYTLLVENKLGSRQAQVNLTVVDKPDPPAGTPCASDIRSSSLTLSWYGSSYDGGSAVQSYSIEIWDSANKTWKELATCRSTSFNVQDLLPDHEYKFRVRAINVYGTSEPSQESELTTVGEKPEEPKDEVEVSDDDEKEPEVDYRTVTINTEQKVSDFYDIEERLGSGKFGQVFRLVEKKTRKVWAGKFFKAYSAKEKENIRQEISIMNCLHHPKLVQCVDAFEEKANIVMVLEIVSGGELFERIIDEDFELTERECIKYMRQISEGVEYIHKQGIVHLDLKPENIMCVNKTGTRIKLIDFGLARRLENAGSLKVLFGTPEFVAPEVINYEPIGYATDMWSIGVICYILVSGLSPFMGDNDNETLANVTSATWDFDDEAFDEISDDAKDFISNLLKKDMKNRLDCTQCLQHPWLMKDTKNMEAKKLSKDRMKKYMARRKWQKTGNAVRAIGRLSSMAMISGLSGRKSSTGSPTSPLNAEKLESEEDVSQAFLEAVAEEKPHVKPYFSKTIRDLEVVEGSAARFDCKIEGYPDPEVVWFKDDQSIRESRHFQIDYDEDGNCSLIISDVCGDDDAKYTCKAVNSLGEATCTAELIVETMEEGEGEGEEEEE
Sequence of Kdr Kinase (VEGFR2) (P35968 whole entry): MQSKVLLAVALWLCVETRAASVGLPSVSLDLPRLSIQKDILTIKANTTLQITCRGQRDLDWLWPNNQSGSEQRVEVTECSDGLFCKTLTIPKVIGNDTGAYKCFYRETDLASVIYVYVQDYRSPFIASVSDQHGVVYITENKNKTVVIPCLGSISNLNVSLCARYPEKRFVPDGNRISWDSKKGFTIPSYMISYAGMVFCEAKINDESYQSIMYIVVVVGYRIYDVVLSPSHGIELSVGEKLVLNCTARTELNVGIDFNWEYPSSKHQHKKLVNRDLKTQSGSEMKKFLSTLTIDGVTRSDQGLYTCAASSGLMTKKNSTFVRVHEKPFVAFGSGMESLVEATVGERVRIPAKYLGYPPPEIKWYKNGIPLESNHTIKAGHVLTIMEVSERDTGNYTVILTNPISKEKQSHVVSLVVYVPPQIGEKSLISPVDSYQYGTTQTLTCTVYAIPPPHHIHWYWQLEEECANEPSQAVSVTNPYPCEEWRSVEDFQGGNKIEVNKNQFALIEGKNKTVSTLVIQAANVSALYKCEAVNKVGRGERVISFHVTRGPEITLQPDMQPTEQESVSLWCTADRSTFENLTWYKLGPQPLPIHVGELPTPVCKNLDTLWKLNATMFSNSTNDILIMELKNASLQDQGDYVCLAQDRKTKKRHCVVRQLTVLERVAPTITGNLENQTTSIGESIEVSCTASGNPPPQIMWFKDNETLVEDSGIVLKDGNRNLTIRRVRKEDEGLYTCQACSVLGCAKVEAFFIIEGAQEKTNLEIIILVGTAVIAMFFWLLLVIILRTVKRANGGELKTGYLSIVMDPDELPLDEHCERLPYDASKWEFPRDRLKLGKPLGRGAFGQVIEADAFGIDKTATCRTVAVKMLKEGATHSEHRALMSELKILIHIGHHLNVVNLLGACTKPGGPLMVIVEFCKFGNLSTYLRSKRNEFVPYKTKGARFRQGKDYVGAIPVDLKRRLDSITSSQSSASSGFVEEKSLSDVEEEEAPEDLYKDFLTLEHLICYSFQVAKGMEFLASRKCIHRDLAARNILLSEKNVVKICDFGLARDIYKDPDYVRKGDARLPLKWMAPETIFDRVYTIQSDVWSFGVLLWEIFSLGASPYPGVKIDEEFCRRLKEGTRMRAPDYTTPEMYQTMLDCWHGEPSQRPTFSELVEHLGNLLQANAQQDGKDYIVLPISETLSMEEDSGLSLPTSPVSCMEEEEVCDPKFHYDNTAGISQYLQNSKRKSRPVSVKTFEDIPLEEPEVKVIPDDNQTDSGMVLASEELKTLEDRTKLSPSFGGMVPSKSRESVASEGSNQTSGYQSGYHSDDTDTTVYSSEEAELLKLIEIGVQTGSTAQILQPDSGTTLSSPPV

Turning to `O=C(O)c1sc2cc(F)sc2c1Cl` [PF-07208254, 3-chloro-5-fluorothieno[3,2-b]thiophene-2-carboxylic acid], the “Lantha Binding % Inhibition PF-07208254” value in [1] is reported as 6.8%; in assay [2], 18.3%; in assay [3], 7.8%; in [4], 29.2%; in [5], 5.9%; in [6], 15.9%. Also, the “Lantha Binding % Inhibition PF-07208254” value came out at 3.3% in assay [7], 16.2% in [8] and 8.1% in assay [9]. This molecule showed an IC50 in [10] of 86 µM. The “% Inhibition PF-07208254” value is given as 0% in assay [11] (100 µM); 42% in assay [12] (100 µM); -4% in [13] (100 µM); 19% in assay [14] (100 µM); 35% in [15] (100 µM); -9% in assay [16] (100 µM). In addition, the “% Inhibition PF-07208254” value in assay [17] (100 µM) is on record as -4%; in [18] (100 µM), 11%; in assay [19] (100 µM), -11%; in assay [20] (100 µM), 15%; in assay [21] (100 µM) it was 57%; in assay [22] (100 µM), -4%. Further, the “% Inhibition PF-07208254” value in assay [23] (100 µM) is given as 0%.

With `CCC1(COc2ccc(-c3csc(-c4ccccc4C(=O)O)n3)cn2)CC1` [PF-07247685, 2-(4-{6-[(1-ethylcyclopropyl)methoxy]pyridin-3-yl}-1,3-thiazol-2-yl)benzoic acid], the “Lantha Binding % Inhibition PF-07247685” value in assay [1] is recorded as -2.2%; in assay [2], 2.4%; in [3], 1.8%; in assay [4], 1.9%; in [5], 0.5%; in [6], 15.1%. Also, the “Lantha Binding % Inhibition PF-07247685” value in assay [7] is recorded as 1.3%; in [8], 3.6%; in assay [9], -1.7%. In addition, the IC50 in assay [10] (read-out: IC50 binding PF-07247685) was 50 µM. Moreover, the “% Inhibition PF-07247685” value in [11] (10 µM) is given as 4%; in [12] (10 µM), 11%; in assay [13] (10 µM) it was -2%; in assay [14] (10 µM) it was -6%; in [15] (10 µM) it was 3%; in assay [16] (10 µM) it was -16%. Besides, the “% Inhibition PF-07247685” value in assay [17] (10 µM) is -31%; in assay [18] (10 µM) it was -8%; in assay [19] (10 µM) it was -24%; in assay [20] (10 µM), -7%; in assay [21] (10 µM) it was -11%; in [22] (10 µM), -4%. Further, in [23] (10 µM), the “% Inhibition PF-07247685” value turned out to be 12%.

The IC50 is the concentration at which inhibition is half-maximal.
